Read-outs that look alike come from different tables or passages of the source. Values belong to the molecule of their own block, whether it stands above or below them.
What was measured:
Assay in all cases: MTT assay
Format in all cases: cell-based, human
[1] = tested on: NB-4 leukemic cell line; settings: 48 h, read-out: MTT50
[2] = tested on: W1 leukemic cell line; settings: 48 h, read-out: MTT50
[3] = tested on: AML-2 leukemic cell line; settings: 48 h, read-out: MTT50
[4] = tested on: G2 leukemic cell line; settings: Homo sapiens, 48 h, read-out: MTT50

SMILES: CSSCC(=O)c1ccccc1 [Compound P, phenacyl methyl disulphide]
IC50 ([1]; Homo sapiens, NB-4): 60.8 µM

SMILES: CSSCS(=O)(=O)c1ccc(C)cc1 [Compound C, α-p-toluenesulfonyl dimethyl disulphide]
IC50 [2]: 8.7 µM | IC50 [3]: 13.2 µM | IC50 ([1]; NB-4): 11.7 µM

SMILES: CSSCCS(C)(=O)=O [F, 2,3,6-trithiaheptane 6,6,-dioxide]
IC50 [3]: 37.6 µM

SMILES: CSSc1ccc([N+](=O)[O-])cc1 [M, methyl p-nitrophenyl disulphide]
IC50 [4]: 11.3 µM | IC50 ([2]; Homo sapiens): 4.8 µM | IC50 ([1]; Homo sapiens, NB-4): 21.2 µM

SMILES: CSCSSC [Compound N, 2,3,5-trithiahexane]
IC50 ([1]; Homo sapiens): 60.8 µM

The next lines start with the values.

IC50 [4]: 3.6 µM | IC50 ([3]; Homo sapiens): 15.6 µM | IC50 ([1]; Homo sapiens, NB-4): 25.4 µM
SMILES: CS(=O)(=O)CSSc1ccccc1 [E, 5-phenyl-2,4,5-trithiapentane 2,2-dioxide]

IC50 [4]: 14.7 µM | IC50 ([2]; Homo sapiens): 13 µM
SMILES: CCC(=O)OCSSc1ccccc1 [Compound Q, 1-phenyl-1,2-dithiapropyl propionate]

Reference: patent publication US20030220524A1, “Sulfur containing compounds” (priority 2000, published 2003)
